From the NIST ThermoML archive (doi:10.1021/je800069z)
Numbers after ± are expanded uncertainties.

Settings: Ring tensiometer

Row | Structure (SMILES) | surface tension liquid-gas (293.15 K) | surface tension liquid-gas (303.15 K) | surface tension liquid-gas (313.15 K) | surface tension liquid-gas (323.15 K) | surface tension liquid-gas (333.15 K) | surface tension liquid-gas (343.15 K) | surface tension liquid-gas (353.15 K)
1 | CCCCCCCn1cc[n+](C)c1.O=S(=O)([N-]S(=O)(=O)C(F)(F)F)C(F)(F)F | 32 ± 0.6 mN/m | 31.36 ± 0.59 mN/m | 30.66 ± 0.58 mN/m | 30.02 ± 0.57 mN/m | 29.5 ± 0.56 mN/m | 28.95 ± 0.55 mN/m | 28.29 ± 0.54 mN/m
2 | CCCn1cc[n+](C)c1.O=S(=O)([N-]S(=O)(=O)C(F)(F)F)C(F)(F)F | 34.87 ± 0.65 mN/m | 34.22 ± 0.64 mN/m | 33.73 ± 0.63 mN/m | 33.31 ± 0.62 mN/m | 32.79 ± 0.61 mN/m | 32.18 ± 0.6 mN/m | –
3 | CCCCCCCCn1cc[n+](C)c1.O=S(=O)([N-]S(=O)(=O)C(F)(F)F)C(F)(F)F | 31.93 ± 0.6 mN/m | 31.3 ± 0.59 mN/m | 30.57 ± 0.58 mN/m | 29.98 ± 0.57 mN/m | 29.4 ± 0.56 mN/m | 28.86 ± 0.55 mN/m | –
4 | CCCCCCCCCCn1cc[n+](C)c1.O=S(=O)([N-]S(=O)(=O)C(F)(F)F)C(F)(F)F | 32.12 ± 0.6 mN/m | 31.34 ± 0.59 mN/m | 30.7 ± 0.58 mN/m | 30.1 ± 0.57 mN/m | 29.5 ± 0.56 mN/m | 28.68 ± 0.55 mN/m | –
5 | CCCCCC[n+]1ccn(C)c1.O=S(=O)([N-]S(=O)(=O)C(F)(F)F)C(F)(F)F | 32.31 ± 0.61 mN/m | 31.76 ± 0.6 mN/m | 31.2 ± 0.59 mN/m | 30.6 ± 0.58 mN/m | 30.16 ± 0.57 mN/m | 29.62 ± 0.56 mN/m | –
6 | CCCC[n+]1ccn(C)c1.O=S(=O)([N-]S(=O)(=O)C(F)(F)F)C(F)(F)F | 33.6 ± 0.63 mN/m | 33.09 ± 0.62 mN/m | 32.5 ± 0.61 mN/m | 31.92 ± 0.6 mN/m | 31.35 ± 0.59 mN/m | 30.9 ± 0.58 mN/m | –
7 | CCCCCn1cc[n+](C)c1.O=S(=O)([N-]S(=O)(=O)C(F)(F)F)C(F)(F)F | 32.9 ± 0.62 mN/m | 32.41 ± 0.61 mN/m | 31.83 ± 0.6 mN/m | 31.27 ± 0.59 mN/m | 30.77 ± 0.58 mN/m | 30.31 ± 0.58 mN/m | –
8 | CCn1cc[n+](C)c1.O=S(=O)([N-]S(=O)(=O)C(F)(F)F)C(F)(F)F | 36.94 ± 0.68 mN/m | 36.43 ± 0.67 mN/m | 35.92 ± 0.66 mN/m | 35.51 ± 0.66 mN/m | 34.96 ± 0.65 mN/m | 34.57 ± 0.64 mN/m | –
